{"source": "patent US20160038519A1", "about": "“ADMINISTRATION OF KARENITECIN FOR THE TREATMENT OF ADVANCED OVARIAN CANCER, INCLUDING CHEMOTHERAPY-RESISTANT AND/OR THE MUCINOUS ADENOCARCINOMA SUB-TYPES” (BioNumerik Pharmaceuticals, Inc., priority 2014, published 2016)", "key": {"solid tumors": {"test_system": "solid tumors", "conditions": "for Time on trial with no evidence of progressive disease: oral", "method": "A Phase I clinical trial (the “Oral Karenitecin Phase I Trial”) was performed to determine the maximum tolerated dose (MTD) of oral Karenitecin in subjects with solid tumors given in a dose-escalated manner (starting at 0.5 mg/m^2) and administered 3-times per week (MWF or TTS) for 3 consecutive weeks followed by a one-week treatment rest.\nIn Stage I, subjects received Karenitecin as a single oral dose 3 times per week for 3 consecutive weeks followed by a one-week treatment rest. In Stage 1, some of subjects underwent pharmacokinetic sampling, and first received a single i.v. dose of Karenitecin (at the appropriate dosage level) followed by oral Karenitecin 4 to 7 days following the i.v. dose on a MWF or TTS schedule. Patients then received oral Karenitecin for all subsequent treatments.\nIn Stage 2, Karenitecin was administered in a dose-escalated manner to approximately 16 subjects with solid tumors in order to determine the maximum tolerated dose (MTD). The initial dose escalation involved cohorts of one new subject per dose level. The starting dose was 0.5 mg/m^2 and dose escalation proceeded in 0.5 mg/m^2 increments. One-subject cohorts were utilized until the occurrence of a dose-limiting toxicity (DLT) or NCI CTCAE≧grade 2 toxicity was observed during the DLT observation period. Patients in Stage 2 received oral Karenitecin at the appropriate dose level on a MTWTF schedule for three (3) consecutive weeks, followed by a one-week rest period."}, "[1]": {"assay": "Lactone stability in humans", "type": "in vivo, human"}, "[2]": {"assay": "Phase I clinical studies of intravenous Karenitecin", "type": "in vivo, human", "protocol": "Results from three Phase I studies indicate that Karenitecin can be safely administered to subjects at the dose level of 1.0 mg/m^2/day i.v. over a one hour period of time for 5 consecutive days in a 3-week treatment cycle. […] Any gastrointestinal toxicity is generally ≦grade 2 and is not dose-limiting.\nIntravenous administration of Karenitecin has been evaluated in three Phase I clinical studies in subjects with the following cancer types: (i) advanced solid tumors (adult subjects) (see, e.g., Schilsky, R. L., Hausheer, F. H., et al., Phase I trial of karenitecin administered intravenously daily for five consecutive days in subjects with advanced solid tumors using accelerated dose titration [abstract]. ASCO Abstract 758 (2000)); (ii) refractory or recurrent solid tumors (pediatric subjects); and (iii) recurrent malignant glioma (adult subjects). Intravenous administration of Karenitecin has also been evaluated in four Phase 2 clinical studies in adult subjects with the following cancer types: (i) primary malignant glioma; (ii) third-line treatment of persistent or recurrent epithelial ovarian or primary peritoneal carcinoma; (iii) malignant melanoma (see, e.g., Hausheer, F. H., et al., Phase II trial of Karenitecin (BNP1350) in malignant melanoma: clinical and translational study [abstract]. ASCO Abstract 7554 (2004); and (iv) relapsed or refractory non-small cell lung cancer (see, e.g., Miller, A. A., et al., MR for the Cancer and Leukemia Group B. Phase II trial of karenitecin in subjects with relapsed or refractory non-small cell lung cancer (CALGB 30004) Lung Cancer 48:399-407 (2005))."}, "OMC3 Cell Line": {"test_system": "OMC3 Cell Line", "assay": "SRB cytotoxicity assay, OMC3", "type": "cell-based, human", "conditions": "Homo sapiens", "protocol": "In vitro studies were conducted in human mucinous ovarian cancer cell lines including JHOM2B, OMC3, and COV644. In one series of experiments, the dose response curves for BNP1350 (also known as Karenitecin), SN-38 (Irinotecan), and Topotecan were obtained and IC50 values were determined. In a second series of experiments, the effect of BNP7787 (2,2′-dithio-bis-ethane sulfonate; Tavocept) on BNP1350-induced cytotoxicity at selected BNP1350 concentrations was examined.\nThe JHOM2B and OMC3 cell lines were purchased from Riken Cell Bank (Japan). The COV644 cell line was purchased from SigmaAldrich. Cells were maintained as monolayered cultures in T-75 flasks and then seeded to microtiter plate wells for experiments. Population doubling-times for these three cell lines were long (i.e., exceeding 40 hours, and for some of the cell lines approaching 96 hours); therefore, the Applicants conducted initial pilot experiments and determined optimal seeding density to obtain A570 values in untreated controls that would fall within the linear range of the SRB assay after seven (7) total days of cell growth. JHOM2B cells were cultured in DMEM:F12 (1:1)+0.1 mM non-essential amino acids (NEAA)+10% FBS and were seeded at 6,000 cells per well. OMC3 cells were cultured in HamF12+10% FBS and were seeded at 8,000 cells per well. COV644 cells were cultured in DMEM+2 mM glutamine+10% FBS and were seeded at 6,000 cells per well.\nThe cells were manipulated in a Microzone laminar flow hood traditionally used for maintaining aseptic environments around automated instrumentation such as microplate robots, and the like. Cells were grown and maintained at 37° C. in a humidified atmosphere containing 5% CO2 in a water jacketed cell culture incubator (Forma Scientific). Cells were counted using a ViCell counter (Beckman-Coulter). An automated plate washer/stacker (ELx405/BioStak from BioTek Instruments) and a microplate reader (SpectraMax Plus from Molecular Devices) were used for conducting the SRB assay and determining A570 values for wells in the plates and the percentage of control values. Prior to SRB assays, cell viability was monitored by evaluation of microtiter plate wells. Dead cells detach and float while living cells remain attached to the bottom of the cell well.\nSN-38 (Irinotecan; Sigma H0165, lot MKBQ4981) and Topotecan (Sigma T2705, lot 052M4728V) were purchased from SigmaAldrich. BNP1350 (lot KN-C192-135) and BNP7787 (lot 205001) were synthesized at BioNumerik Pharmaceuticals, Inc. (San Antonio, Tex.). BNP1350, SN38, and Topotecan were prepared as 2.5, 2.5, and 25 mM stocks in DMSO (ATCC, cell culture grade).\nThe sulforhodamine B (SRB) cytotoxicity assay was used to assess cell survival. Briefly, after the medium was decanted from individual plate wells, trichloroacetic acid (100 μL of 10.0 percent solution) was added to each well, and the plates were incubated at 4° C. for 1 hour. The plates were washed five times with water using an automated microplate washer (Model ELx405, Bio-Tek Instruments), SRB solution (100 μL of 0.4% SRB dissolved in 1.0 percent acetic acid) was added, and plates remained at room temperature for 15 minutes. The plates were then washed five times using acetic acid (1.0 percent), air dried, and bound dye was solubilized in Tris base (150 μL, 10 mM). Plates were agitated (gently) for 5 minutes and the absorbance values of the SRB dye-protein adduct at 570 nanometers (A570) were determined using an automated microtiter plate reader (SpectraMax Plus, Molecular Devices). IC50 values were extrapolated from dose response curves of the data using OriginLab Software."}, "advanced ovarian cancer": {"test_system": "advanced ovarian cancer", "assay": "Phase II study in advanced ovarian cancer after failed prior treatments", "type": "in vivo, human"}, "beagle dogs": {"test_system": "beagle dogs", "conditions": "dog, in vivo, iv"}}, "note": "“Also recorded” adds a separate entry of the source. Like-named read-outs stand apart in the source and are kept apart here."}
{"smiles": "CC[C@@]1(O)C(=O)OCc2c1cc1n(c2=O)Cc2c-1nc1ccccc1c2CC[Si](C)(C)C", "note": "[Karenitecin, (4S)-4-ethyl-4-hydroxy-11-[2-(trimethylsilyl)ethyl]-1H-pyrano[3′:4′:6,7]indolizino[1,2-b]quinoline-3,14(4H,12H)-dione]", "values": [{"measurement": "Tolerability of oral administration", "setting": "solid tumors; in vivo, po", "result": "generally well-tolerated"}, {"measurement": "Time on trial with no evidence of progressive disease", "setting": "solid tumors; a patient with advanced ovarian cancer", "result": "approximately 16 months"}, {"measurement": "Time on trial with no evidence of progressive disease", "setting": "solid tumors; a patient with breast cancer", "result": "approximately 19.5 months"}, {"measurement": "Time on trial with no evidence of progressive disease", "setting": "solid tumors; a patient with carcinoma of the parotid gland", "result": "approximately 12 months"}, {"measurement": "Time on trial with no evidence of progressive disease", "setting": "solid tumors; a patient with colorectal cancer", "result": "approximately 8 months"}, {"measurement": "Time on trial with no evidence of progressive disease", "setting": "solid tumors; a patient with leiomyosarcoma", "result": "approximately 7 months"}, {"measurement": "Time on trial with no evidence of progressive disease", "setting": "solid tumors; a patient with melanoma", "result": "approximately 15 months"}, {"measurement": "Time on trial with no evidence of progressive disease", "setting": "solid tumors; a patient with neuroendocrine cancer", "result": "approximately 23 months"}, {"measurement": "Time on trial with no evidence of progressive disease", "setting": "solid tumors; a patient with non-small cell lung cancer", "result": "approximately 36 months"}, {"measurement": "Time on trial with no evidence of progressive disease", "setting": "solid tumors; a patient with pancreatic cancer", "result": "approximately 7 months"}, {"measurement": "Time on trial with no evidence of progressive disease", "setting": "solid tumors; a patient with peritoneal papillary adenocarcinoma cancer", "result": "approximately 8 months"}, {"measurement": "Time on trial with no evidence of progressive disease", "setting": "solid tumors; a patient with prostate cancer", "result": "approximately 7 months"}, {"measurement": "Time on trial with no evidence of progressive disease", "setting": "solid tumors; a patient with refractory small cell cancer", "result": "approximately 6 months"}, {"measurement": "Time on trial with no evidence of progressive disease", "setting": "solid tumors; a patient with sarcoma", "result": "approximately 9 months"}, {"measurement": "Lactone stability", "setting": "[1]", "result": "approximately 85%"}, {"measurement": "Gastrointestinal toxicity grade", "setting": "[2]; i.v. 1.0 mg/m^2/day x5, 3-week cycle, not dose-limiting", "result": "≤ 2", "unit": "grade"}, {"measurement": "Dose-limiting toxicity", "setting": "[2]; i.v., Phase I clinical studies", "result": "non-cumulative, reversible myelosuppression; also recorded: reversible and non-cumulative neutropenia and thrombocytopenia"}, {"measurement": "Hypersensitivity reactions reported by subjects", "setting": "[2]; to date", "result": "no hypersensitivity reactions"}, {"measurement": "IC50", "setting": "OMC3 Cell Line; 2 hour drug exposure, average of Test 1 and Test 2, read-out: IC50, Average", "result": 49.5, "unit": "nM"}, {"measurement": "IC50", "setting": "OMC3 Cell Line; 2 hour drug exposure, read-out: IC50, Test 1 (2 replicate plates)", "result": "57 ± 4", "unit": "nM"}, {"measurement": "IC50", "setting": "OMC3 Cell Line; 2 hour drug exposure, read-out: IC50, Test 2 (3 replicate plates)", "result": "42 ± 6", "unit": "nM"}, {"measurement": "IC50", "setting": "OMC3 Cell Line; read-out: IC50 values", "result": 49.5, "unit": "nM"}, {"measurement": "Time to Progression (TTP) compared with historical results reported with Topotecan", "setting": "advanced ovarian cancer", "result": "prolonged"}, {"measurement": "Toxicities observed", "setting": "beagle dogs", "result": "reversible myelosuppression (predominantly neutropenia)"}]}
